Experiments:
Type in all cases: in vivo
[1] = tested on: field corn (Zea mays L., var. Dekalb 535, CORN); assay: Pre-emerge test, crop safety; conditions: pre-emerge, 14 days after application; for phytotoxicity rating CORN: rating scale 0-100; for phytotoxicity rating CORN (crop damage): scale 0-100
In short: (§1)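 Herbicidal damage is scored 0 (none) to 100 (complete plant death) two weeks after a simulated field spray. Rates span 15–1000 g ai/ha, delivered in acetone at 187 l/ha. For post-emergence treatments, plants have 2–3 leaves and the spray carries 0.25% v/v non-ionic surfactant.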

[2] = tested on: upland rice (Oryza sp., var. Tebonnet, RICE); assay: Pre-emerge test, crop safety; conditions: pre-emerge, 14 days after application; for phytotoxicity rating RICE: rating scale 0-100; for phytotoxicity rating RICE (crop damage): scale 0-100
In short: as §1

[3] = tested on: barnyardgrass (Echinochloa crus-galli, ECHCG); assay: Post-emerge test, greenhouse herbicide activity screening; conditions: post-emerge, 14 days after application, rating scale 0-100
In short: (§2)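 Compounds in acetone were track-sprayed at 15–1000 g ai/ha: pre-emergence onto soil sown the previous day, then top-watered to incorporate and later bottom-watered; post-emergence onto 2–3 leaf plants with 0.25% v/v surfactant, bottom-watered only. Ratings on a 0–100 phytotoxicity scale were taken at day 14.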

[4] = tested on: large crabgrass (Digitaria sanguinalis, DIGSA); assay: as above; conditions: post-emerge, 14 days after application, rating scale 0-100
In short: as §2

[5] = tested on: redroot pigweed (Amaranthus retroflexus, AMARE); assay: as above; conditions: post-emerge, 14 days after application
In short: as §2

[6] = tested on: velvetleaf (Abutilon theophrasti, ABUTH); assay: as above; conditions: post-emerge, 14 days after application, rating scale 0-100
In short: as §2

[7] = tested on: green foxtail (Setaria viridis, SETVI); assay: as above; conditions: post-emerge, 14 days after application, rating scale 0-100
In short: as §2

[8] = tested on: sicklepod (Cassia obtusifolia, CASOB); assay: as above; conditions: post-emerge, 14 days after application, rating scale 0-100
In short: as §2

[9] = tested on: ivyleaf morningglory (Ipomoea hederacea, IPOHE); assay: as above; conditions: post-emerge, 14 days after application, rating scale 0-100
In short: as §2

[10] = tested on: field corn (Zea mays L., var. Dekalb 535, CORN); assay: Post-emerge test, crop safety; conditions: post-emerge, 14 days after application, rating scale 0-100
In short: (§3)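 Visual ratings on a 0-100 scale (0 no damage, 100 all plants dead) were taken at 14 days after treatment. Rates of 15-1000 g ai/ha in acetone, 187 l/ha, were sprayed onto soil one day after planting (pre-emerge) or onto 2-3 leaf plants with 0.25% v/v surfactant (post-emerge).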

[11] = tested on: upland rice (Oryza sp., var. Tebonnet, RICE); assay: Post-emerge test, crop safety; conditions: post-emerge, 14 days after application, rating scale 0-100
In short: as §3

[12] = tested on: redroot pigweed (Amaranthus retroflexus, AMARE); assay: Pre-emerge test, greenhouse herbicide activity screening; conditions: pre-emerge, 14 days after application
In short: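 Sandy loam pots; pre-emerge: sown 1 d pre-spray, surface-watered after, then bottom-watered. Post-emerge: sown 8–21 d before, 2–3 leaf stage, + 0.25% v/v NIS, bottom-watered. Acetone, 187 l/ha track spray, 15–1000 g ai/ha. 0–100 injury score, day 14.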

[13] = tested on: barnyardgrass (Echinochloa crus-galli, ECHCG); assay: as above; conditions: pre-emerge, 14 days after application
In short: as §3

[14] = tested on: large crabgrass (Digitaria sanguinalis, DIGSA); assay: as above; conditions: pre-emerge, 14 days after application
In short: as §3

[15] = tested on: velvetleaf (Abutilon theophrasti, ABUTH); assay: as above; conditions: pre-emerge, 14 days after application
In short: as §3

[16] = tested on: lambsquarters (Chenopodium album, CHEAL); assay: as above; conditions: pre-emerge, 14 days after application
In short: as §3

[17] = tested on: johnsongrass (Sorghum halepense, SORHA); assay: as above; conditions: pre-emerge, 14 days after application
In short: as §3

[18] = tested on: green foxtail (Setaria viridis, SETVI); assay: as above; conditions: pre-emerge, 14 days after application
In short: as §3

[19] = tested on: sicklepod (Cassia obtusifolia, CASOB); assay: as above; conditions: pre-emerge, 14 days after application
In short: as §3

[20] = tested on: ivyleaf morningglory (Ipomoea hederacea, IPOHE); assay: as above; conditions: pre-emerge, 14 days after application
In short: as §3

[21] = 250 g ai/ha, rating scale 0-100

CCOC(=O)N(C)C(=O)NNc1c(OC)c(Cl)cc(F)c1-n1c(=O)cc(C(F)(F)F)n(C)c1=O [15-9]
phytotoxicity rating CORN ([1]; 63 g ai/ha): 85 | phytotoxicity rating CORN ([1]; 250 g ai/ha): 98 | phytotoxicity rating RICE ([2]; 63 g ai/ha): 95 | phytotoxicity rating RICE ([2]; 250 g ai/ha): 100 | Post-emerge Herbicidal Activity ECHCG (phytotoxicity rating) ([3]; 63 g ai/ha): 0 | Post-emerge Herbicidal Activity ECHCG (phytotoxicity rating) ([3]; 250 g ai/ha): 90 | Post-emerge Herbicidal Activity DIGSA (phytotoxicity rating) ([4]; 63 g ai/ha): 0 | Post-emerge Herbicidal Activity DIGSA (phytotoxicity rating) ([4]; 250 g ai/ha): 80 | Post-emerge Herbicidal Activity AMARE (phytotoxicity rating) ([5]; 63 g ai/ha, rating scale 0-100 (0 no damage, 100 complete death)): 10 | Post-emerge Herbicidal Activity AMARE (phytotoxicity rating) [5, 21]: 95 | Post-emerge Herbicidal Activity ABUTH (phytotoxicity rating) ([6]; 63 g ai/ha): 80 | Post-emerge Herbicidal Activity ABUTH (phytotoxicity rating) ([6]; 250 g ai/ha): 100 | Post-emerge Herbicidal Activity SETVI (phytotoxicity rating) ([7]; 63 g ai/ha): 0 | Post-emerge Herbicidal Activity SETVI (phytotoxicity rating) ([7]; 250 g ai/ha): 80 | Post-emerge Herbicidal Activity CASOB (phytotoxicity rating) ([8]; 63 g ai/ha): 10 | Post-emerge Herbicidal Activity CASOB (phytotoxicity rating) ([8]; 250 g ai/ha): 60 | Post-emerge Herbicidal Activity IPOHE (phytotoxicity rating) ([9]; 63 g ai/ha): 100 | Post-emerge Herbicidal Activity IPOHE (phytotoxicity rating) ([9]; 250 g ai/ha): 85 | Post-emerge Herbicidal Activity CORN (crop damage rating) ([10]; 63 g ai/ha): 30 | Post-emerge Herbicidal Activity CORN (crop damage rating) ([10]; 250 g ai/ha): 70 | Post-emerge Herbicidal Activity RICE (crop damage rating) ([11]; 63 g ai/ha): 50 | Post-emerge Herbicidal Activity RICE (crop damage rating) ([11]; 250 g ai/ha): 90 | phytotoxicity rating AMARE ([12]; 63 g ai/ha, rating scale 0-100): 100 | phytotoxicity rating AMARE [12, 21]: 100 | phytotoxicity rating ECHCG ([13]; 63 g ai/ha, rating scale 0-100): 99 | phytotoxicity rating ECHCG [13, 21]: 100 | phytotoxicity rating DIGSA ([14]; 63 g ai/ha, rating scale 0-100): 90 | phytotoxicity rating DIGSA [14, 21]: 100 | phytotoxicity rating ABUTH ([15]; 63 g ai/ha, rating scale 0-100): 100 | phytotoxicity rating ABUTH [15, 21]: 100 | phytotoxicity rating CHEAL ([16]; 63 g ai/ha, rating scale 0-100): 100 | phytotoxicity rating CHEAL [16, 21]: 100 | phytotoxicity rating SORHA ([17]; 63 g ai/ha, rating scale 0-100): 100 | phytotoxicity rating SORHA [17, 21]: 100 | phytotoxicity rating SETVI ([18]; 63 g ai/ha, rating scale 0-100): 100 | phytotoxicity rating SETVI [18, 21]: 100 | phytotoxicity rating CASOB ([19]; 63 g ai/ha, rating scale 0-100): 90 | phytotoxicity rating CASOB [19, 21]: 100 | phytotoxicity rating IPOHE ([20]; 63 g ai/ha, rating scale 0-100): 99 | phytotoxicity rating IPOHE [20, 21]: 100

COc1ccc(-n2c(=O)cc(C(F)(F)F)n(C)c2=O)c(NC(=O)c2ccc3ccccc3c2)c1 [2-143]
phytotoxicity rating CORN (crop damage) ([1]; 63 g ai/ha): 0 | phytotoxicity rating CORN (crop damage) ([1]; 250 g ai/ha): 5 | phytotoxicity rating RICE (crop damage) ([2]; 63 g ai/ha): 20 | phytotoxicity rating RICE (crop damage) ([2]; 250 g ai/ha): 65 | ECHCG phytotoxicity rating ([3]; 63 g ai/ha): 0 | ECHCG phytotoxicity rating ([3]; 250 g ai/ha): 30 | DIGSA phytotoxicity rating ([4]; 63 g ai/ha): 0 | DIGSA phytotoxicity rating ([4]; 250 g ai/ha): 40 | AMARE phytotoxicity rating ([5]; 63 g ai/ha, rating scale 0-100): 100 | AMARE phytotoxicity rating [5, 21]: 100 | ABUTH phytotoxicity rating ([6]; 63 g ai/ha): 100 | ABUTH phytotoxicity rating ([6]; 250 g ai/ha): 100 | SETVI phytotoxicity rating ([7]; 63 g ai/ha): 0 | SETVI phytotoxicity rating ([7]; 250 g ai/ha): 40 | CASOB phytotoxicity rating ([8]; 63 g ai/ha): 70 | CASOB phytotoxicity rating ([8]; 250 g ai/ha): 100 | IPOHE phytotoxicity rating ([9]; 63 g ai/ha): 60 | IPOHE phytotoxicity rating ([9]; 250 g ai/ha): 100 | CORN phytotoxicity rating (crop damage) ([10]; 63 g ai/ha): 10 | CORN phytotoxicity rating (crop damage) ([10]; 250 g ai/ha): 35 | RICE phytotoxicity rating (crop damage) ([11]; 63 g ai/ha): 40 | RICE phytotoxicity rating (crop damage) ([11]; 250 g ai/ha): 70 | phytotoxicity rating AMARE ([12]; 63 g ai/ha, scale 0-100): 100 | phytotoxicity rating AMARE ([12]; 250 g ai/ha, scale 0-100): 100 | phytotoxicity rating ECHCG ([13]; 63 g ai/ha, scale 0-100): 30 | phytotoxicity rating ECHCG ([13]; 250 g ai/ha, scale 0-100): 85 | phytotoxicity rating DIGSA ([14]; 63 g ai/ha, scale 0-100): 30 | phytotoxicity rating DIGSA ([14]; 250 g ai/ha, scale 0-100): 100 | phytotoxicity rating ABUTH ([15]; 63 g ai/ha, scale 0-100): 100 | phytotoxicity rating ABUTH ([15]; 250 g ai/ha, scale 0-100): 100 | phytotoxicity rating CHEAL ([16]; 63 g ai/ha, scale 0-100): 100 | phytotoxicity rating CHEAL ([16]; 250 g ai/ha, scale 0-100): 100 | phytotoxicity rating SORHA ([17]; 63 g ai/ha, scale 0-100): 30 | phytotoxicity rating SORHA ([17]; 250 g ai/ha, scale 0-100): 80 | phytotoxicity rating SETVI ([18]; 63 g ai/ha, scale 0-100): 30 | phytotoxicity rating SETVI ([18]; 250 g ai/ha, scale 0-100): 70 | phytotoxicity rating CASOB ([19]; 63 g ai/ha, scale 0-100): 0 | phytotoxicity rating CASOB ([19]; 250 g ai/ha, scale 0-100): 90 | phytotoxicity rating IPOHE ([20]; 63 g ai/ha, scale 0-100): 0 | phytotoxicity rating IPOHE ([20]; 250 g ai/ha, scale 0-100): 35

Reference: patent US6355799B1, “Substituted benzene compounds, process for their preparation, and herbicidal and defoliant compositions containing them” (ISK Americas Incorporated, priority 1997, dated 2002)
